Source: patent US5677274A (The Government of the United States as represented by the …, priority 1993, dated 1997)

System: CHO cells
Format: cell-based, Chinese Hamster

## CC[C@@]1([C@@H]2O[C@@H]([C@H]3O[C@@](O)(CO)[C@H](C)C[C@@H]3C)C[C@@H]2C)CC[C@H]([C@]2(C)CC[C@]3(C[C@H](O)[C@@H](C)[C@@H]([C@@H](C)[C@@H](OC)[C@H](C)C(=O)O)O3)O2)O1 [monensin]
  decrease in potency of FP33: > 100 fold
  protection against the other three fusion proteins: exceeded 20 fold
